# Test results from publication PMC6321172, “Analysis of Vipadenant and Its In Vitro and In Vivo Metabolites via Liquid Chromatography-Quadrupole-Time-of-Flight Mass Spectrometry” (Pharmaceutics, 2018).
# Like-named read-outs stand apart in the source and are kept apart here.
# What was measured:
# [1] = Preliminary stability assessment in rat plasma QC samples; type: physicochemical; conditions: for Mean Accuracy (%), post-preparative stability: processed rat plasma samples, 24 h, 4 °C; for Mean Accuracy (%), long-term stability: 2 weeks; for Mean Accuracy (%), long-term stability / Mean Accuracy (%), freeze-thaw stability: −80 °C; for Mean Accuracy (%), freeze-thaw stability: 3 cycles; for Mean Accuracy (%), short term stability: 4 h, RT
# Experimental: Each stability assessment was carried out in blank rat plasma. Three levels of QC (low, medium and high) were used in the short-term, freeze-thaw, long-term and post-preparative stability assessments and two levels of QC (medium & high) were used in stock solution stability assessment. The short term stability assessment was carried out at room temperature (RT) over 4 h and the results obtained were compared with the control (0 min). In the long-term stability assessment, the samples kept frozen at −80 °C for 2 weeks were compared with the freshly prepared control group samples. The freeze-thaw stability was evaluated over three cycles of freezing (−80 °C) and thawing (RT). […] As a separate stock-solution stability assessment, the vipadenant stock-solution prepared at 1 mg/mL (DMSO) was stored at −80 °C for 6 months and its stability was evaluated. The stability test results were evaluated by confirming that the mean accuracy (%) of the nominal value which should be within ± 25% range.
# [2] = In-house metabolic stability study (rat liver microsome); type: in vitro ADME; conditions: liver microsomes, read-out: in vitro intrinsic clearance
# [3] = Stock solution stability assessment (1 mg/mL in DMSO); type: physicochemical; conditions: for Mean Accuracy (%), stock storage stability: DMSO stock, 6 months, −80°C
# Experimental: Each stability assessment was carried out in blank rat plasma. Three levels of QC (low, medium and high) were used in the short-term, freeze-thaw, long-term and post-preparative stability assessments and two levels of QC (medium & high) were used in stock solution stability assessment. The short term stability assessment was carried out at room temperature (RT) over 4 h and the results obtained were compared with the control (0 min). In the long-term stability assessment, the samples kept frozen at −80 °C for 2 weeks were compared with the freshly prepared control group samples. The freeze-thaw stability was evaluated over three cycles of freezing (−80 °C) and thawing (RT). The post-preparative stability was assessed for the QC samples kept in an auto-sampler (10 °C) for 24 h. As a separate stock-solution stability assessment, the vipadenant stock-solution prepared at 1 mg/mL (DMSO) was stored at −80 °C for 6 months and its stability was evaluated. The stability test results were evaluated by confirming that the mean accuracy (%) of the nominal value which should be within ± 25% range.
# [4] = Rat pharmacokinetic study after IV or PO administration; type: in vivo; conditions: for Cmax: read-out: C0 or Cmax; for Vd: read-out: Vss
# Experimental: Twenty microliters of the rat pharmacokinetics samples were placed in cluster tubes. As a make-up solution, 4 μL of DMSO was added to the cluster tube and 100 μL of ACN containing ISTD (verapamil) was also added. The mixture was capped, gently shaken for approximately 1 min and was then centrifuged for 5 min at 12,000 rpm (4 °C). Following the centrifugation, 50 μL supernatant was transferred to a clean test tube and was diluted with 100 μL of distilled water. The resulting mixture was then transferred to an LC-vial and 10 μL was injected to the LC-QTOF-MS. The same procedure was also applied to the STD samples and QC samples.
# Data acquisition and LC-QTOF-MS operation was conducted using Analyst® TF Version 1.6 (Sciex). MultiQuant® Version 2.1.1 (Sciex) was used for the peak integration for vipadenant quantification. PeakView® Version 2.2 and MetabolitePilot™ Version 2.0.2 were used for the structural elucidation of vipadenant metabolites. […] Pharmacokinetic parameters were calculated in a non-compartmental analysis using WinNonlin® version 8.0.0 (Certara, Princeton, NJ, USA).
# Male sprague-dawley rats (300 ± 10 g) were purchased from the Samtako Biokorea Co. (Gyeonggi, Korea) and housed in groups of 3~4 per cage and given standard rodent chow. […] Rats were distributed into four different groups (three rats per group; 1 & 2 mg/kg IV group and 2 & 5 mg/kg PO group). Blood was drawn into the heparinized tubes after IV (1 and 2 mg/kg) or PO (2 and 5 mg/kg) administration and was immediately centrifuged at 10,000 rpm for 5 min. […] The supernatant of the centrifuged samples (plasma) were transferred to the clean tubes and stored at −20 °C until analysis.
# During the sample preparation of the PK samples, QC samples were included for the assurance of the analytical run.
# [5] = rat plasma, nominal QC 15 ng/mL
# [6] = rat plasma, nominal QC 165 ng/mL
# [7] = rat plasma, nominal QC 1820 ng/mL
# [8] = male, Sprague-Dawley, plasma, rat, IV 1 mg/kg
# [9] = male, Sprague-Dawley, plasma, rat, IV 2 mg/kg
# [10] = male, Sprague-Dawley, plasma, rat, PO 2 mg/kg
# [11] = male, Sprague-Dawley, plasma, rat, PO 5 mg/kg
compound,measurement,setting,value
"Cc1cc(Cn2nnc3c(-c4ccco4)nc(N)nc32)ccc1N [vipadenant, Vipadenant]",time processed samples stable,[1]; auto-sampler storage condition (10 °C),at least 24 h
same,"Mean Accuracy (%), post-preparative stability",[1]; nominal QC 15 ng/mL,114.8%
same,"Mean Accuracy (%), post-preparative stability",[1]; nominal QC 165 ng/mL,99.2%
same,"Mean Accuracy (%), post-preparative stability",[1]; nominal QC 1820 ng/mL,94.9%
same,"Mean Accuracy (%), long-term stability",[1]; [5],111.8%
same,"Mean Accuracy (%), long-term stability",[1]; [6],104.1%
same,"Mean Accuracy (%), long-term stability",[1]; [7],103.7%
same,"Mean Accuracy (%), freeze-thaw stability",[1]; [5],118.8%
same,"Mean Accuracy (%), freeze-thaw stability",[1]; [6],88.5%
same,"Mean Accuracy (%), freeze-thaw stability",[1]; [7],91.1%
same,"Mean Accuracy (%), short term stability",[1]; [5],97.8%
same,"Mean Accuracy (%), short term stability",[1]; [6],90.5%
same,"Mean Accuracy (%), short term stability",[1]; [7],92.6%
same,freeze-thaw stability (in words),"[1]; rat plasma, three cycles of freeze-thawing (RT vs. −80 °C)",stable
same,"time stable, long-term stability test","[1]; rat plasma, −80 °C storage",at least 2 weeks
same,time stable in rat plasma QC sample,[1]; room temperature,at least 4 h
same,CLint scaled,[2],20 mL/min/kg
same,"Mean Accuracy (%), stock storage stability",[3]; nominal QC 165 ng/mL,102.5%
same,"Mean Accuracy (%), stock storage stability",[3]; nominal QC 1820 ng/mL,95.6%
same,time stock solution showed stability,[3]; stock solution prepared in DMSO,6 months
same,AUC(0-t),[4]; [8],451 ng·h/mL
same,Tmax,[4]; [8],2.6 min
same,clearance,[4]; [8],37.8 ± 7.2 mL/min/kg
same,half-life,[4]; [8],48 ± 5.8 min
same,Cmax,[4]; [8],2210 ± 1160 ng/mL
same,Vd,[4]; [8],1.08 ± 0.223 L/kg
same,AUC(0-t),[4]; [9],1510 ng·h/mL
same,Tmax,[4]; [9],2 min
same,clearance,[4]; [9],22.5 ± 4.3 mL/min/kg
same,half-life,[4]; [9],71.2 ± 8.5 min
same,Cmax,[4]; [9],3090 ± 222 ng/mL
same,Vd,[4]; [9],1.21 ± 0.174 L/kg
same,AUC(0-t),[4]; [10],279 ng·h/mL
same,Tmax,[4]; [10],7.5 min
same,half-life,[4]; [10],65.2 ± 20.2 min
same,Cmax,[4]; [10],230 ± 88 ng/mL
same,AUC(0-t),[4]; [11],887 ng·h/mL
same,Tmax,[4]; [11],30 min
same,half-life,[4]; [11],116 ± 59 min
same,Cmax,[4]; [11],296 ± 87.3 ng/mL
same,bioavailability,"[4]; male, Sprague-Dawley, plasma, rat, PO 2 and 5 mg/kg vs IV 1 and 2 mg/kg, read-out: BA (average bioavailability)",30.4 ± 8.9%
same,clearance (in words),[4]; rat IV study,low to moderate clearance
